Experimental data: article PMC12398837 (Journal of Pharmaceutical Analysis, 2025)
pIC50: −log10 of the molar value. Structures can show the parent of a compound that is named as a salt. Where two headings read alike, the source gives them in different places.

Tests used:
[1] = cited from earlier work
hDAT = molecular target: T1, hDAT (Homo sapiens, UniProt Q01959); assay: Neurotransmitter Transporter Uptake Assay Kit, DA reuptake inhibition; format: cell-based; settings: Table 1; inhibition of dopamine reuptake, reduction of RFU
T1 construct: expressed in transfected cells; host or cells: HEK-293T (HEK293T), stably transfected
Protocol: DA uptake activity was measured using a Neurotransmitter Transporter Uptake Assay Kit (Molecular Devices, San Jose, CA, USA). […] 2-[4-(2-hydroxyethyl)-1-piperazinyl] ethanesulfonic acid (HEPES) buffer solution (150 mM NaCl, 5 mM KCl, 10 mM glucose, 2 mM CaCl2, 1 mM MgCl2, 10 mM HEPES, pH 7.4) was used to wash cells three times before the experiment. Cells in the experimental group were treated with six different compounds. After 15 min, the dye solution was added and the fluorescence intensity was measured for 30 min in the 520 nm range with excitation at 440 nm. The inhibition percentages were calculated using the end point measurements at 30 min. The four-parameter logistic nonlinear regression model was used to determine the half maximal inhibitory concentration (IC50) values.
The DA reuptake inhibitory activities of the six repurposed drugs were evaluated using the Neurotransmitter Transporter Uptake Assay Kit through dose-response assays. This assay employs a novel fluorescent indicator dye designed to mimic neurotransmitters, along with a masking dye to quench extracellular fluorescence, enabling precise measurement of transporter-mediated uptake activity.

T1 sequence (Q01959 whole entry): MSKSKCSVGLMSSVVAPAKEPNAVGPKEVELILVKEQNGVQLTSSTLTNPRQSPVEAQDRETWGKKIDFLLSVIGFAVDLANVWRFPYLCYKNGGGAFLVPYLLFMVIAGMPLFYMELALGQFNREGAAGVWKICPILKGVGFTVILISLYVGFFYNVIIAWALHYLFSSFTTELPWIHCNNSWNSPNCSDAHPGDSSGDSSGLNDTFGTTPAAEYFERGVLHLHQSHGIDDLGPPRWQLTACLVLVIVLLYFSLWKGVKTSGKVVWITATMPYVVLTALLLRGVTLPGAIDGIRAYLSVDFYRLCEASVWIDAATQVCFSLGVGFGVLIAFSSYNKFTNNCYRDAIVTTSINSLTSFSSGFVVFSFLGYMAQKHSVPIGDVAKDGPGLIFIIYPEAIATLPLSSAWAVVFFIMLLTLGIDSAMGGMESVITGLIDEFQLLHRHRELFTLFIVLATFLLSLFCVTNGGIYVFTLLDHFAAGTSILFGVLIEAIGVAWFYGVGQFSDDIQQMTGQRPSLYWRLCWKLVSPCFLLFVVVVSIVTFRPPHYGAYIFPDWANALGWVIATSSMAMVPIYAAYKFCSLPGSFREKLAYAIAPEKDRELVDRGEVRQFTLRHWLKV

SMILES: CCCN1CCCC[C@H]1C(=O)Nc1c(C)cccc1C [Compound 4, Ropivacaine]
- CNS and cardiac toxicity ([1]; previous research): mild CNS and cardiac toxicity
- pIC50 (hDAT): 6.12

SMILES: Cc1cccc(C)c1NC(=O)C1CCCCN1C (stereo not drawn) [Compound 14, Mepivacaine hydrochloride]
- metabolism ([1]; restricts application to peripheral nerve blockade): rapid metabolism
- pIC50 (hDAT): 6.27

SMILES: CCCCN1CCCC[C@H]1C(=O)Nc1c(C)cccc1C [Compound 19, Levobupivacaine]
- CNS and cardiac toxicity ([1]; particularly under acidosis and hyperkalemia): mild CNS and cardiac toxicity
- pIC50 (hDAT): 5.92
